Literature values, collected in US20030082109A1, “Dextrorotary nicotine for smoking cessation” (priority 2001, published 2003).
Like-named read-outs stand apart in the source and are kept apart here.

Tests used:
[1] = use as alternative alkaloid in smoking substitute; found and reported
living organisms = conditions: compared with l-isomer nicotine, found and reported
[2] = given amount of d-isomer vs like amount of natural l-isomer, in a person

SMILES | adverse side effects [1] | toxicity relative to the natural tobacco-derived l-isomer of nicotine (living organisms) | toxicity relative to the natural tobacco-derived l-isomer of nicotine (living organisms; listed as dextrorotary isomer of nicotine) | sensations and satisfaction relative to a like amount of l-isomer nicotine [2]
CN1[C@@H](CC(=O)c2ccccc2)CCC[C@H]1C[C@H](O)c1ccccc1 [lobeline] | adverse side effects, which are worse than tobacco withdrawal symptoms |  |  | 
CN1CCCC1c1cccnc1 (stereo not drawn) [d-isomer of nicotine, 1 methyl-2-(3-Pyridyl) pyrrolidine] |  | one half as toxic | half as toxic | same sensations and satisfaction
